The supplement of paper PMC10307832

Columns and labels:
Assay in all cases: relative viability (nuclei count vs DMSO), 5 days (fraction); higher = more cells survive
ChaGo-K-1 = test system: ChaGo-K-1
Method in brief: (§1)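 Lung cancer cell lines, seeded in 1536-well plates, were treated the following day by pin tool with a single drug or with five library-drug doses (not always all listed) in √10 steps on top of a fixed anchor-drug dose. Cells were fixed and nuclei stained in one step after 5 days, and nuclei were counted. Relative viability is the nuclei count for treated wells divided by that for vehicle wells, reported as medians of duplicate plates.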

NCI-H2009 = test system: NCI-H2009
Method in brief: as §1

HCC-44 = test system: HCC-44
Method in brief: as §1

NCI-H1734 = test system: NCI-H1734
Method in brief: as §1

NCI-H2087 = test system: NCI-H2087
Method in brief: as §1

NCI-H441 = test system: NCI-H441
Method in brief: as §1

SK-LU-1 = test system: SK-LU-1
Method in brief: as §1

SW 1573 = test system: SW 1573
Method in brief: as §1

NCI-H838 = test system: NCI-H838
Method in brief: as §1

NCI-H1975 = test system: NCI-H1975
Method in brief: as §1

PC-3 [JPC-3] = test system: PC-3 [JPC-3]
Method in brief: as §1

NCI-H522 = test system: NCI-H522
Method in brief: as §1

NCI-H1355 = test system: NCI-H1355
Method in brief: as §1

EMC-BAC-2 = test system: EMC-BAC-2
Method in brief: as §1

HCC-366 = test system: HCC-366
Method in brief: as §1

HOP-62 = test system: HOP-62
Method in brief: as §1

HCC-78 = test system: HCC-78
Method in brief: as §1

UMC-11 = test system: UMC-11
Method in brief: as §1

NCI-H2347 = test system: NCI-H2347
Method in brief: as §1

NCI-H727 = test system: NCI-H727
Method in brief: as §1

NCI-H2126 = test system: NCI-H2126
Method in brief: as §1

LC-2-ad = test system: LC-2-ad
Method in brief: as §1

NCI-H1944 = test system: NCI-H1944
Method in brief: as §1

SMILES: C=C1C(=O)O[C@@H](CCCCCCCC)[C@@H]1C(=O)O [C-75] + CC(=O)c1c(C)c2cnc(Nc3ccc(N4CCNCC4)cn3)nc2n(C2CCCC2)c1=O [Palbociclib] (partner 0.5 µM)
- relative viability (ChaGo-K-1; first compound 0.08 µM): 0.87
- relative viability (ChaGo-K-1; first compound 0.253 µM): 0.894
- relative viability (ChaGo-K-1; first compound 0.8 µM): 0.888
- relative viability (ChaGo-K-1; first compound 2.53 µM): 0.519
- relative viability (ChaGo-K-1; first compound 8 µM): 0.915
- relative viability (NCI-H2009; first compound 0.08 µM): 0.24
- relative viability (NCI-H2009; first compound 0.253 µM): 0.192
- relative viability (NCI-H2009; first compound 0.8 µM): 0.19
- relative viability (NCI-H2009; first compound 2.53 µM): 0.171
- relative viability (NCI-H2009; first compound 8 µM): 0.216
- relative viability (HCC-44; first compound 0.08 µM): 0.971
- relative viability (HCC-44; first compound 0.253 µM): 1.1
- relative viability (HCC-44; first compound 0.8 µM): 1.02
- relative viability (HCC-44; first compound 2.53 µM): 0.956
- relative viability (HCC-44; first compound 8 µM): 0.996
- relative viability (NCI-H1734; first compound 0.08 µM): 0.34
- relative viability (NCI-H1734; first compound 0.253 µM): 0.315
- relative viability (NCI-H1734; first compound 0.8 µM): 0.36
- relative viability (NCI-H1734; first compound 2.53 µM): 0.254
- relative viability (NCI-H1734; first compound 8 µM): 0.345
- relative viability (NCI-H2087; first compound 0.08 µM): 0.239
- relative viability (NCI-H2087; first compound 0.253 µM): 0.232
- relative viability (NCI-H2087; first compound 0.8 µM): 0.239
- relative viability (NCI-H2087; first compound 2.53 µM): 0.209
- relative viability (NCI-H2087; first compound 8 µM): 0.217
- relative viability (NCI-H441; first compound 0.08 µM): 0.255
- relative viability (NCI-H441; first compound 0.253 µM): 0.255
- relative viability (NCI-H441; first compound 0.8 µM): 0.205
- relative viability (NCI-H441; first compound 8 µM): 0.184
- relative viability (SK-LU-1; first compound 0.08 µM): 0.384
- relative viability (SK-LU-1; first compound 0.253 µM): 0.43
- relative viability (SK-LU-1; first compound 0.8 µM): 0.429
- relative viability (SK-LU-1; first compound 2.53 µM): 0.387
- relative viability (SK-LU-1; first compound 8 µM): 0.384
- relative viability (SW 1573; first compound 0.08 µM): 0.357
- relative viability (SW 1573; first compound 0.253 µM): 0.394
- relative viability (SW 1573; first compound 0.8 µM): 0.47
- relative viability (SW 1573; first compound 2.53 µM): 0.423
- relative viability (SW 1573; first compound 8 µM): 0.351
- relative viability (NCI-H838; first compound 0.08 µM): 0.227
- relative viability (NCI-H838; first compound 0.253 µM): 0.206
- relative viability (NCI-H838; first compound 0.8 µM): 0.194
- relative viability (NCI-H838; first compound 2.53 µM): 0.207
- relative viability (NCI-H838; first compound 8 µM): 0.206
- relative viability (NCI-H1975; first compound 0.08 µM): 0.67
- relative viability (NCI-H1975; first compound 0.253 µM): 0.433
- relative viability (NCI-H1975; first compound 0.8 µM): 0.525
- relative viability (NCI-H1975; first compound 2.53 µM): 0.484
- relative viability (NCI-H1975; first compound 8 µM): 0.581
- relative viability (PC-3 [JPC-3]; first compound 0.08 µM): 0.54
- relative viability (PC-3 [JPC-3]; first compound 0.253 µM): 0.509
- relative viability (PC-3 [JPC-3]; first compound 0.8 µM): 0.515
- relative viability (PC-3 [JPC-3]; first compound 2.53 µM): 0.502
- relative viability (PC-3 [JPC-3]; first compound 8 µM): 0.568
- relative viability (NCI-H522; first compound 0.08 µM): 1.27
- relative viability (NCI-H522; first compound 0.253 µM): 0.989
- relative viability (NCI-H522; first compound 0.8 µM): 1.06
- relative viability (NCI-H522; first compound 2.53 µM): 0.698
- relative viability (NCI-H522; first compound 8 µM): 0.779
- relative viability (NCI-H1355; first compound 0.08 µM): 0.402
- relative viability (NCI-H1355; first compound 0.253 µM): 0.388
- relative viability (NCI-H1355; first compound 0.8 µM): 0.428
- relative viability (NCI-H1355; first compound 2.53 µM): 0.364
- relative viability (NCI-H1355; first compound 8 µM): 0.463
- relative viability (EMC-BAC-2; first compound 0.08 µM): 0.522
- relative viability (EMC-BAC-2; first compound 0.253 µM): 0.505
- relative viability (EMC-BAC-2; first compound 0.8 µM): 0.515
- relative viability (EMC-BAC-2; first compound 2.53 µM): 0.438
- relative viability (EMC-BAC-2; first compound 8 µM): 0.521
- relative viability (HCC-366; first compound 0.08 µM): 0.363
- relative viability (HCC-366; first compound 0.253 µM): 0.477
- relative viability (HCC-366; first compound 0.8 µM): 0.33
- relative viability (HCC-366; first compound 2.53 µM): 0.334
- relative viability (HCC-366; first compound 8 µM): 0.343
- relative viability (HOP-62; first compound 0.08 µM): 0.46
- relative viability (HOP-62; first compound 0.253 µM): 0.431
- relative viability (HOP-62; first compound 0.8 µM): 0.484
- relative viability (HOP-62; first compound 2.53 µM): 0.361
- relative viability (HOP-62; first compound 8 µM): 0.413
- relative viability (HCC-78; first compound 0.08 µM): 0.476
- relative viability (HCC-78; first compound 0.253 µM): 0.469
- relative viability (HCC-78; first compound 0.8 µM): 0.514
- relative viability (HCC-78; first compound 2.53 µM): 0.459
- relative viability (HCC-78; first compound 8 µM): 0.461
- relative viability (UMC-11; first compound 0.08 µM): 0.308
- relative viability (UMC-11; first compound 0.253 µM): 0.315
- relative viability (UMC-11; first compound 0.8 µM): 0.321
- relative viability (UMC-11; first compound 2.53 µM): 0.351
- relative viability (UMC-11; first compound 8 µM): 0.268
- relative viability (NCI-H2347; first compound 0.08 µM): 0.468
- relative viability (NCI-H2347; first compound 0.253 µM): 0.44
- relative viability (NCI-H2347; first compound 0.8 µM): 0.35
- relative viability (NCI-H2347; first compound 2.53 µM): 0.389
- relative viability (NCI-H2347; first compound 8 µM): 0.413
- relative viability (NCI-H727; first compound 0.08 µM): 0.755
- relative viability (NCI-H727; first compound 0.253 µM): 0.667
- relative viability (NCI-H727; first compound 0.8 µM): 0.544
- relative viability (NCI-H727; first compound 2.53 µM): 0.614
- relative viability (NCI-H727; first compound 8 µM): 0.624
- relative viability (NCI-H2126; first compound 0.08 µM): 0.348
- relative viability (NCI-H2126; first compound 0.253 µM): 0.35
- relative viability (NCI-H2126; first compound 0.8 µM): 0.335
- relative viability (NCI-H2126; first compound 2.53 µM): 0.349
- relative viability (NCI-H2126; first compound 8 µM): 0.339
- relative viability (LC-2-ad; first compound 0.08 µM): 0.555
- relative viability (LC-2-ad; first compound 0.253 µM): 0.474
- relative viability (LC-2-ad; first compound 0.8 µM): 0.471
- relative viability (LC-2-ad; first compound 2.53 µM): 0.381
- relative viability (LC-2-ad; first compound 8 µM): 0.482
- relative viability (NCI-H1944; first compound 0.08 µM): 0.34
- relative viability (NCI-H1944; first compound 0.253 µM): 0.296
- relative viability (NCI-H1944; first compound 0.8 µM): 0.279
- relative viability (NCI-H1944; first compound 2.53 µM): 0.305
- relative viability (NCI-H1944; first compound 8 µM): 0.305
